Earlier results on 1 substance are cited in patent US20060205656A1 (priority 1999, published 2006).

The conditions of this series: in vivo.

On to contulakin-G, for which the “potency in inhibiting pain relative to neurotensin” value is “significantly more potent than neurotensin”.
